One data set deals with T1, tyrosine hydroxylase (Bos taurus, UniProt P17289).
T1 sequence (P17289 1-491): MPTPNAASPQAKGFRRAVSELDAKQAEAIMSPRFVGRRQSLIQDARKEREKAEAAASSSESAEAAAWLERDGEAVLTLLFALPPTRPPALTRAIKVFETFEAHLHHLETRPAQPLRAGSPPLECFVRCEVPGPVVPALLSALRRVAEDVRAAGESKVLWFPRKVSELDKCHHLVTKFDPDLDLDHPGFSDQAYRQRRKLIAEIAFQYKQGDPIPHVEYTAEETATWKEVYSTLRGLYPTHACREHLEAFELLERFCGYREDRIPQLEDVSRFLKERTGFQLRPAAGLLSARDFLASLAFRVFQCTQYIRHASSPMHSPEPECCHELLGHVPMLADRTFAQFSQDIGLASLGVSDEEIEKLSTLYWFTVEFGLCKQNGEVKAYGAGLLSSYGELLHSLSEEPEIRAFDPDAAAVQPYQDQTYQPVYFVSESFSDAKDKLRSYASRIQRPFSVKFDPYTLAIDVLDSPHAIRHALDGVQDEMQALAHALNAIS
As to the kind of experiment: inhibition of tyrosine hydroxylase (method of J. Antibiot. 23, 514 (1970)). The settings on record: for inhibition at 0.1 mg: at 100 meg. (figure after the slash in the cell); for inhibition at 0.1 mg / inhibition at 0.05 mg / inhibition: read-out: Inhibition of the product (1a) to tyrosine hydroxylase; for inhibition at 0.05 mg: at 50 meg. (figure after the slash in the cell); for inhibition: at 200 meg. (figure after the slash in the cell). It counts as biochemical. Further details: inhibition: dose or concentration left out as unconfirmed. An excerpt:
(§1) Pharmacological properties of the new compounds of the present invention are now described. The new compounds of the present invention have been examined for their biological activities, and their inhibition to tyrosine hydroxylase are summarised in Table 2 later. The details of the test methods used and the close relationship of the biological activities between in vitro and in vivo are well presented in some published literatures (for example, see "J. Antibiot." 23, 514 (1970) and "J. Am. Chem. Soc." 93, 1285 (1971)). For instance, 2-(2-hydroxyhydrocinnamoyl)-1,3-cyclopentanedione, typical one of the new compounds of the present invention, was tested by dissolving in distilled water (pH was adjusted to 2.5) and administering to mice. […] Effect of this compound on tyrosine hydroxylase was also tested by the method described in the "Journal of Antibiotics" 23, 514 (1970).
In these Examples, various derivatives of 2cinnamoyl-1,3-cyclopentanedione of the formula [IVa] as prepared in Examples 3 - 34 were converted into the corresponding derivatives of 2-hydrocinnamoyl-1,3-cyclopentanedione of the formula [Ia] by hydrogenating them in the same manner as in the catalytic hydrogenation step of Example 1 (3). Nature of R1 and R2 in the resulting hydrogenation products 2-hydrocinnamoyl-1,3-cyclopentanediones [Ia], their yields, melting point and elementary analysis data are summarised in Table 2 with reference to the amount and nature of the catalyst and solvent which were employed in the catalytic hydrogenation step. In Table 2, there are also shown the degrees of inhibition (%) of the produced derivatives of 2-hydrocinnamoyl-1,3-cyclopentanedione [Ia] to tyrosine hydroxylase to provide a measure of their biological properties, the inhibition degrees as shown being determined by the same method as that used to estimate the inhibition % of 2-(2-hydroxyhydrocinnamoyl)-1,3-cyclopentanedione as mentioned above.

Data set [1] can be described thus: acute toxicity (LD50) in mice. Conditions: mouse, in vivo, dissolved in distilled water pH 2.5.
Source text: as §1

The test system of data set [2] is genetically hypertensive rats. The experiment in a line: hypotensive effect in genetically hypertensive rats. It counts as in vivo. Conditions: for blood pressure after injection: 1-22 hours after the injection. The procedure: (§2) Hydroxylation of tyrosine is the rate-limiting step of norepinephrine biosynthesis. Therefore, inhibition of tyrosine hydroxylase results in inhibition of norepinephrine synthesis in vivo which results in lowering the blood pressure. […] The hypotensive effect can be seen more markedly, when it is given to genetically hypertensive rats which was developed by Prof. Okamoto, Midical School, University of Kyoto. When 6.25 mg/Kg. was intraperitoneally injected to a rat of 185 mm. blood pressure and another rat of 188 mm., then the blood pressure was lowered to […]. and 118-162 mm. respectively during 1-22 hours after the injection. When 125 mg/Kg. was intraperitoneally injected to a rat of 195 mm., the pressure was reduced to 155-166 mm. during 1-22 hours after the injection. […] It caused 20-30% reduction which continued for about 5 days after the last oral administration.

A further data set concerns mice. As to the kind of experiment: sedative effect after injection of a large dose, mice. The class given is in vivo.
Data set [3] has as its system rats. As to the kind of experiment: sedative effect after injection of a large dose, rats. It counts as in vivo.
For data set [4], the system named is rats. As to the kind of experiment: blood pressure of rats on daily injection or oral administration. It counts as in vivo. The procedure: as §2
A further data set concerns hypertensive patients. The experiment in a line: daily administration to hypertensive patients for 30 days. It counts as in vivo, human. The settings on record: 300 mcg daily divided into three times.
Where [5] appears, read: oral, daily 3.1, 6.25, 12.5, 25 mg/Kg for three days.

Broadly, the inhibition is the relative decrease from the control value, in per cent. `O=C1CCC(=O)C1C(=O)CCc1ccccc1` [Example 35, 2-hydrocinnamoyl-1,3-cyclopentanedione]: the inhibition at 0.1 mg on tyrosine hydroxylase is 60%. By LD50 is commonly meant the dose at which mortality reaches 50%. With `O=C1CCC(=O)C1C(=O)CCc1ccccc1O` [Example 38, 2-(2-hydroxyhydrocinnamoyl)-1,3-cyclopentanedione], the 50% lethal dose (LD50) in data set [1] (ip, intraperitoneal injection) came to 283 mg/kg; in data set [1] (oral administration), 550 mg/kg. Also, the “blood pressure after injection” value in data set [2] (6.25 mg/Kg intraperitoneally, rat of 185 mm. blood pressure) is listed as 25-155 mm; in data set [2] (6.25 mg/Kg intraperitoneally, rat of 188 mm. blood pressure), 118-162 mm; in data set [2] (125 mg/Kg intraperitoneally, rat of 195 mm. blood pressure) it was 155-166 mm. For the same compound, the “duration of the blood pressure reduction after the last oral administration” value in data set [2] (setting [5]) is given as “about 5 days”. In addition, in data set [2] (setting [5]), the “reduction of blood pressure” value was 20-30%. The sedative effect result in the data set on mice is “did not cause sleeping and the sedative effect was not recognized”; in the data set on rats [3] it was “did not cause sleeping and the sedative effect was not recognized”. Also, the “inhibition to tyrosine hydroxylase” value came to 30% at tyrosine hydroxylase (at 12.5 mcg/cc), 38% at tyrosine hydroxylase (at 25 mcg/cc) and 44% at tyrosine hydroxylase (at 50 mcg/cc). In addition, the inhibition at 0.1 mg on tyrosine hydroxylase is 52%. Also, the “relation with 2-amino-4-hydroxy-6,7-dimethyltetrahydropteridine (Lineweaver-Burk plot)” value at tyrosine hydroxylase (cofactor 2-amino-4-hydroxy-6,7-dimethyltetrahydropteridine) was “competitive”. Also, at tyrosine hydroxylase (substrate tyrosine), the “relation with tyrosine (Lineweaver-Burk plot)” value is listed as “uncompetitive”. Also, in the data set with rats [4], the “effect on blood pressure” value is given as “lowered the blood pressure”. Also, the hypotensive effect result with hypertensive patients is reported as “showed hypotensive effect”. In the data set with hypertensive patients, the side effect entry was “without any side effect”. On to `O=C1CCC(=O)C1C(=O)CCc1cccc(O)c1` [Example 39, 2-(3-hydroxyhydrocinnamoyl)-1,3-cyclopentanedione], for which the inhibition at 0.1 mg at tyrosine hydroxylase came out at 23%. For the compound `O=C1CCC(=O)C1C(=O)CCc1ccc(O)cc1` [Example 40, 2-(4-Hydroxyhydrocinnamoyl)-1,3-cyclopentanedione], the inhibition at 0.05 mg at tyrosine hydroxylase is 32%.

In the case of `COc1ccc(CCC(=O)C2C(=O)CCC2=O)cc1` [Example 41, 2-(4-Methoxyhydrocinnamoyl)-1,3-cyclopentanedione], the inhibition at 0.1 mg on tyrosine hydroxylase was found to be 29%.

In the case of `O=C1CCC(=O)C1C(=O)CCc1ccccc1Cl` [Example 42, 2-(2-chlorohydrocinnamoyl)-1,3-cyclopentanedione], at tyrosine hydroxylase, the inhibition at 0.1 mg stood at 10%.

Take `O=C1CCC(=O)C1C(=O)CCc1ccc(Cl)cc1` [Example 43, 2-(4-chlorohydrocinnamoyl)-1,3-cyclopentanedione]: the inhibition at 0.1 mg at tyrosine hydroxylase amounted to 42%. Still for that read-out and setting: then `O=C1CCC(=O)C1C(=O)CCc1cccc(F)c1` [Example 44], with 36%. On to `O=C1CCC(=O)C1C(=O)CCc1ccc(F)cc1` [Example 45, 2-(4-Fluorohydrocinnamoyl)-1,3-cyclopentanedione], for which, on tyrosine hydroxylase, the inhibition came out at 62%. For `O=C1CCC(=O)C1C(=O)CCc1ccccc1F` [Example 46], the inhibition at tyrosine hydroxylase was 53%. For the compound `COc1ccccc1CCC(=O)C1C(=O)CCC1=O` [Example 47], the inhibition at tyrosine hydroxylase amounted to 7.6%.

For `O=C1CCC(=O)C1C(=O)CCc1ccc(Br)cc1` [Example 48], the inhibition at 0.05 mg at tyrosine hydroxylase worked out at 50%. For the compound `Cc1ccc(CCC(=O)C2C(=O)CCC2=O)cc1` [Example 49, 2-(4-methylhydrocinnamoyl)-1,3-cyclopentanedione], the inhibition at tyrosine hydroxylase worked out at 44%. On the same count and under the same terms, then `COC(=O)c1ccc(CCC(=O)C2C(=O)CCC2=O)cc1` [Example 50, 2-(4-Methoxycarbonylhydrocinnamoyl)-1,3-cyclopentanedione], with 41%. Consider `COc1cccc(CCC(=O)C2C(=O)CCC2=O)c1` [Example 51], for which the inhibition at tyrosine hydroxylase was found to be 6.4%. In the case of `CCOc1ccc(CCC(=O)C2C(=O)CCC2=O)cc1` [Example 52], the inhibition on tyrosine hydroxylase was 15.6%. Still for that read-out and setting: the same measure for `O=C1CCC(=O)C1C(=O)CCc1cccc(Br)c1` [Example 53]: 50.7%; for `CC(C)c1ccc(CCC(=O)C2C(=O)CCC2=O)cc1` [Example 54]: 36.8%; for `CCOC(=O)c1ccc(CCC(=O)C2C(=O)CCC2=O)cc1` [Example 55]: 12.8%. As to `CCCOC(=O)c1ccc(CCC(=O)C2C(=O)CCC2=O)cc1` [Example 56], on tyrosine hydroxylase, the inhibition is 4.6%.

For the compound `N#Cc1ccc(CCC(=O)C2C(=O)CCC2=O)cc1` [Example 57], the inhibition on tyrosine hydroxylase stood at 77.4%. Same read-out and setting: the same measure for `CN(C)c1ccc(CCC(=O)C2C(=O)CCC2=O)cc1` [Example 58]: 10.1%.

`O=C1CCC(=O)C1C(=O)CCc1cccc(C(F)(F)F)c1` [Example 59]: the inhibition on tyrosine hydroxylase is 30.5%. Consider `CC(=O)Oc1ccccc1CCC(=O)C1C(=O)CCC1=O` [Example 60], for which, at tyrosine hydroxylase, the inhibition at 0.1 mg came out at 10%. Regarding `COc1cc(CCC(=O)C2C(=O)CCC2=O)ccc1O` [Example 61, 2-(4-Hydroxy-3-methoxyhydrocinnamoyl)-1,3-cyclopentanedione], the “inhibition to tyrosine hydroxylase” value against tyrosine hydroxylase (at 200 mcg/cc) is “about 10%”. Take `O=C1CCC(=O)C1C(=O)CCc1ccc(Cl)c(Cl)c1` [Example 62, 2-(3,4-dichlorohydrocinnamoyl)-1,3-cyclopentanedione]: the “inhibition to tyrosine hydroxylase” value at tyrosine hydroxylase (at 100 mcg/cc) turned out to be 45%. As to `O=C1CCC(=O)C1C(=O)CCc1ccc2c(c1)OCO2` [Example 63, 2-(3,4-methylenedioxyhydrocinnamoyl)-1,3-cyclopentanedione], the “inhibition to tyrosine hydroxylase” value at tyrosine hydroxylase (at 100 mcg/cc) amounted to 22.5%. For the compound `COc1ccc(CCC(=O)C2C(=O)CCC2=O)cc1O` [Example 64, 2-(3-hydroxy-4-methoxyhydrocinnomoyl)-1,3-cyclopentanedione], on tyrosine hydroxylase (at 200 mcg/cc), the “inhibition to tyrosine hydroxylase” value was determined as 29.5%.

Consider `COc1cccc(CCC(=O)C2C(=O)CCC2=O)c1O` [Example 65, 2-(2-hydroxy-3-methoxyhydrocinnamoyl)-1,3-cyclopentanedione], for which the “inhibition to tyrosine hydroxylase” value on tyrosine hydroxylase (at 100 mcg/cc) stood at 5%. In the case of `O=C1CCC(=O)C1C(=O)CCc1ccc(O)c(O)c1` [Example 66, 2-(3,4-dihydroxyhydrocinnamoyl)-1,3-cyclopentanedione], the “inhibition to tyrosine hydroxylase” value on tyrosine hydroxylase (at 100 mcg/cc) stood at 85%.

For the origin of these results see patent US4003936A, “2-Hydrocinnampyl-1,3-cyclopentanediones” (Zaidan Hojin Biseibutsu Kagaku Kenkyu Kai, priority 1970, dated 1977).
